# Compound: Cn1c(=O)n(-c2ccc(C(C)(C)C#N)cc2)c2c3cc(-c4cnc5ccccc5c4)ccc3ncc21 [Dactolisib] + COc1cccc2cc(-c3nc([C@H]4CC[C@H](C(=O)O)CC4)n4ncnc(N)c34)[nH]c12 [OSI-027] (partner 0.5 µM)
# Assay: relative viability (nuclei count vs DMSO), 5 days (fraction); higher = more cells survive
# Details: first compound 0.02 µM
# How it was run: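 Lung cancer cell lines, seeded in 1536-well plates, were treated the following day by pin tool with a single drug or with five library-drug doses (not always all listed) in √10 steps on top of a fixed anchor-drug dose. Cells were fixed and nuclei stained in one step after 5 days, and nuclei were counted. Relative viability is the nuclei count for treated wells divided by that for vehicle wells, reported as medians of duplicate plates.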
row,Cell Line,relative viability
1,NCI-H2087,0.53
2,NCI-H1648,0.279
3,SK-MES-1,0.603
4,H3255,0.623
5,COR-L23,0.59
6,COR-L 105,0.478
7,LOU-NH91,0.741
8,ChaGo-K-1,0.571
9,NCI-H2170,0.689
10,NCI-H2405,0.685
11,HOP-62,0.728
12,NCI-H522,0.881
13,SW 900,0.474
14,NCI-H441,0.716
15,NCI-H1395,0.709
16,NCI-H1793,0.257

# Same assay, conditions: first compound 0.06325 µM
row,Cell Line,relative viability
1,NCI-H2342,0.695
2,NCI-H1623,0.38
3,NCI-H727,0.47
4,NCI-H1650,0.455
5,NCI-H1993,0.469
6,SK-LU-1,0.283
7,NCI-H838,0.252
8,LCLC-103H,0.519
9,NCI-H520,0.204
10,NCI-H2126,0.618
11,EMC-BAC-2,0.346
12,NCI-H2085,0.319
13,HCC-366,0.469
14,NCI-H1666,0.755
15,NCI-H596,0.399
16,LK-2,0.207

row,Cell Line,relative viability
1,NCI-H2087,0.43
2,NCI-H1648,0.235
3,SK-MES-1,0.324
4,H3255,0.609
5,COR-L23,0.289
6,COR-L 105,0.385
7,LOU-NH91,0.732
8,ChaGo-K-1,0.537
9,NCI-H2170,0.543
10,NCI-H2405,0.543
11,HOP-62,0.611
12,NCI-H522,0.671
13,SW 900,0.244
14,NCI-H441,0.44
15,NCI-H1395,0.647
16,NCI-H1793,0.212

# Same assay, conditions: first compound 0.2 µM
row,Cell Line,relative viability
1,NCI-H2342,0.518
2,NCI-H1623,0.396
3,NCI-H727,0.4
4,NCI-H1650,0.282
5,NCI-H1993,0.589
6,SK-LU-1,0.226
7,NCI-H838,0.274
8,LCLC-103H,0.431
9,NCI-H520,0.189
10,NCI-H2126,0.458
11,EMC-BAC-2,0.296
12,NCI-H2085,0.269
13,HCC-366,0.556
14,NCI-H1666,0.687
15,NCI-H596,0.315
16,LK-2,0.159
17,NCI-H2087,0.252
18,NCI-H1648,0.263
19,SK-MES-1,0.242
20,H3255,0.488
21,COR-L23,0.259
22,COR-L 105,0.314
23,LOU-NH91,0.519
24,ChaGo-K-1,0.609
25,NCI-H2170,0.37
26,NCI-H2405,0.464
27,HOP-62,0.492
28,NCI-H522,0.539
29,SW 900,0.213
